Legend:
Assay in all cases: combination Emax (second highest fraction inhibited in the dose matrix, 72 h); higher = more inhibition; extreme values may be limits of the assay
[1] = test system: CAL-148 (Breast Carcinoma)
Outline: (§1)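 Cell lines in DMEM/F12 or RPMI with 10% FBS were plated in 1536-well plates, held 24 hours at 37°C, 5% CO2, then given two-drug dose matrices for 72 hours (DMSO typically 0.2%). Viability was read by CellTiter-Glo 2.0 luminescence and scaled as inhibition from 0 (vehicle wells) to 1 (blank wells). Combination Emax is the second-highest inhibition in the matrix; Bliss excess is observed combination effect minus expected EA + EB − EA·EB, EA and EB being single-agent effects.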

[2] = test system: CCRF-CEM (T-Lymphoblastic Leukemia)
Outline: as §1

[3] = test system: Calu-3 (Lung Adenocarcinoma)
Outline: as §1

[4] = test system: DoTc2-4510 (Cervical Carcinoma)
Outline: as §1

[5] = test system: HCC-78 (Lung Adenocarcinoma)
Outline: as §1

[6] = test system: HO-1-N-1 (Oral Cavity Carcinoma)
Outline: as §1

HOS (Osteosarcoma) = test system: HOS (Osteosarcoma)
Outline: as §1

[7] = test system: HT-1376 (Bladder Carcinoma)
Outline: as §1

[8] = test system: Hs-578-T (Breast Carcinoma)
Outline: as §1

[9] = test system: KURAMOCHI (Ovarian Carcinoma)
Outline: as §1

[10] = test system: LB831-BLC (Bladder Carcinoma)
Outline: as §1

[11] = test system: LS-180 (Colorectal Carcinoma)
Outline: as §1

[12] = test system: ME-1 (Acute Myeloid Leukemia)
Outline: as §1

NB10 (Neuroblastoma) = test system: NB10 (Neuroblastoma)
Outline: as §1

[13] = test system: NCI-H2085 (Non-Small Cell Lung Carcinoma)
Outline: as §1

[14] = test system: NCI-H82 (Small Cell Lung Carcinoma)
Outline: as §1

[15] = test system: Ramos-2G6-4C10 (Burkitt's Lymphoma)
Outline: as §1

[16] = test system: TE-15 (Esophageal Squamous Cell Carcinoma)
Outline: as §1

[17] = test system: TE-9 (Esophageal Squamous Cell Carcinoma)
Outline: as §1

[18] = test system: UM-UC-3 (Bladder Carcinoma)
Outline: as §1

Row | Structure (SMILES) | combination Emax [1] | combination Emax [2] | combination Emax [3] | combination Emax [4] | combination Emax [5] | combination Emax [6] | combination Emax (HOS (Osteosarcoma)) | combination Emax [7] | combination Emax [8] | combination Emax [9] | combination Emax [10] | combination Emax [11] | combination Emax [12] | combination Emax (NB10 (Neuroblastoma)) | combination Emax [13] | combination Emax [14] | combination Emax [15] | combination Emax [16] | combination Emax [17] | combination Emax [18]
1 | CC1(C)CCC(CN2CCN(c3ccc(C(=O)NS(=O)(=O)c4ccc(NCC5CCOCC5)c([N+](=O)[O-])c4)c(Oc4cnc5[nH]ccc5c4)c3)CC2)=C(c2ccc(Cl)cc2)C1 [Venetoclax] + CS(=O)(=O)CCNCc1ccc(-c2ccc3ncnc(Nc4ccc(OCc5cccc(F)c5)c(Cl)c4)c3c2)o1 [Lapatinib] (first compound max 1 µM, 7x7, partner max 10 µM) | 0.235 | 0.501 | 0.74 | 0.522 | 0.143 | 0.668 | 0.13 | 0.194 | 0.554 | 0.341 | 0.202 | 0.298 | 1 | 0.0761 | 0.244 | 0.279 | 0.241 | 0.742 | 0.189 | 0.104
2 | C[C@@H](Oc1cc(-c2cnn(C3CCNCC3)c2)cnc1N)c1c(Cl)ccc(F)c1Cl [Crizotinib] + CC1=C(C(=CC=C1)Cl)NC(=O)C2=CN=C(S2)NC3=CC(=NC(=N3)C)N4CCN(CC4)CCO [Dasatinib] (first compound max 10 µM, 7x7, partner max 2 µM) | 0.578 | 0.911 | 0.767 | 0.897 | 0.754 | 0.972 | 0.756 | 0.418 | 0.961 | 0.909 | 0.921 | 0.585 | 0.258 | 0.792 | 1 | 0.875 | 0.586 | 0.79 | 0.691 | 0.716
3 | C=CCn1c(=O)c2cnc(Nc3ccc(N4CCN(C)CC4)cc3)nc2n1-c1cccc(C(C)(C)O)n1 [AZD1775] + CCc1c2c(nc3ccc(O)cc13)-c1cc3c(c(=O)n1C2)COC(=O)[C@]3(O)CC [SN-38] (first compound max 1 µM, partner max 0.3 µM) | 0.974 | 1 | 0.786 | 0.92 | 0.954 | 0.978 | 0.849 | 0.342 | 0.855 | 0.944 | 0.875 | 0.806 | 0.597 | 0.853 | 0.523 | 0.965 | 1 | 0.939 | 0.496 | 0.954
